Reference: PMC13298843, “Substituent size versus metal binding of inhibitors with variants of influenza endonuclease^” (Journal of inorganic biochemistry, 2025)
Like-named read-outs stand apart in the source and are kept apart here.

Columns and labels:
influenza = settings: oral monotherapy taken at time of diagnosis; cited from earlier work
[1] = target: WT enzyme (PAN endonuclease); parameters: method as in PMID 31536340; settings: FRET-based assay, cited from earlier work
[2] = type: physicochemical; settings: at 1000 μM in DSF buffer with 4 % DMSO
[3] = read-out: pIC50 values (converted)
[4] = at edge of limit of detection, read-out: IC50 values

COC(=O)OCOc1c2n(ccc1=O)N([C@@H]1c3ccccc3SCc3c1ccc(F)c3F)[C@@H]1COCCN1C2=O [BXM, Baloxavir marboxil]
time to reduce fever (average) (influenza): 24 h

Cc1ccccc1-c1cc(=O)c(O)c(C(=O)O)[nH]1 [Compound 1]
IC50 [1, 3]: < 2 nM

CCc1ccccc1-c1cc(=O)c(O)c(C(=O)O)[nH]1 [Compound 2]
IC50 [1, 3]: < 2 nM

CSc1ccccc1-c1cc(=O)c(O)c(C(=O)O)[nH]1 [Compound 3]
IC50 [1, 4]: ~3 nM

O=C(O)c1[nH]c(-c2ccccc2Oc2ccccc2)cc(=O)c1O [Compound 4]
IC50 [1, 4]: ~3 nM | solubility [2]: poorly soluble
